Assay results: patent publication EP1175907A1, “REMEDIES” (Takara Shuzo Co, Ltd., priority 1999, dated 2000)
Values joined by “and” are separate entries in the source; they are usually repeats but may differ in a detail not shown here. Equal values may be shown once.

Legend:
MRC-5 cells [1] = assay: HGF production in MRC-5 cells with cycloheximide (protein synthesis inhibitor); format: cell-based, Human; details: for Amount of HGF Produced (in Medium): control = 100%
Procedure: (1) Five-hundred microliters of a solution containing MRC-5 cells suspended in a DME medium containing 10% fetal bovine serum so as to have a concentration of 1 × 10^5 cells/ml were added into each well of a 48-well cell culture plate. The cells were cultured at 37°C for 24 hours in the presence of 5% CO2, and then the medium was exchanged for a DME medium containing 1% fetal bovine serum. Thereafter, cycloheximide (protein synthesis inhibitor: manufactured by nacalaitesque) was added thereto so as to have a final concentration of 0, 1, or 10 µg/ml, and a sample to be analyzed was further added thereto. Thereafter, the cells were cultured for 24 hours. This medium was collected, and the amount of HGF in the medium was determined by using the HGF ELISA Kit. The fucoidan derived from Kjellmaniella crassifolia described in item (1) of Reference Example 1 was added so as to have a final concentration of 1, 10 or 100 µg/ml. As a control, distilled water was added in the same volume as that of the sample. Each experiment was carried out twice, and an average value was taken. In Table 50, the amount of HGF produced of the control was regarded as 100%.
(2) Five-hundred microliters of MRC-5 cells (CCL171: manufactured by DAINIPPON PHARMACEUTICAL CO., LTD., code. 02-021) suspended in a DME medium containing 10% fetal bovine serum so as to have a concentration of 1 × 10^5 cells/ml were added into each well of a 48-well cell culture plate. The cells were cultured at 37°C for 24 hours in the presence of 5% CO2, and then the medium was exchanged for a DME medium containing 1% fetal bovine serum. Thereafter, cycloheximide (protein synthesis inhibitor: manufactured by nacalaitesque) was added thereto so as to have a final concentration of 0, 1, or 10 µg/ml, and a sample to be analyzed was further added thereto. The cells were then cultured for 24 hours. This medium was collected, and the amount of HGF in the medium was determined by using Quantikine Human Hepatocyte Growth Factor (HGF) ELISA Kit (manufactured by Funakoshi, Code. RS-0641-00). In addition, the cells were washed with PBS, and thereafter dissolved in 500 µl of a cytolytic buffer (50 mM HEPES, pH 7.4; 10 mM EDTA, 0.1% Triton x 100; 1 mM PMSF; 1 µg/ml pepstatin A and 1 µg/ml leupeptin). Further, in order to completely dissolve the cells, the mixture was subjected to sonication treatment, and then centrifuged, to give a supernatant (cell extract). The amount of HGF in the cell was determined in the same manner as that of the concentration of HGF in the medium. As to the amount of HGF produced, negative control was regarded as 100%. As to the inhibitory ratio, the inhibitory ratio (%) in the cycloheximide-added fraction was calculated on the basis of the amount of HGF produced when 7-12SFd-F was added alone at each concentration. 7-12SFd-F was added so as to have a final concentration of 1, 10 or 100 µg/ml. As the negative control, distilled water was added in the same volume as that of the sample. Each experiment was carried out three times, and an average value was taken. […] It was clarified from these findings that protein synthesis was involved in the induction of HGF production by 7-12SFd-F, not simply freeing of HGF from the cells.

MRC-5 cells [2] = assay: induction action for HGF production in MRC-5 cells (HGF ELISA of medium); format: cell-based, Human; details: 24 h, control = 100%
Procedure: (1) Five-hundred microliters each of MRC-5 cells (CCL171: manufactured by DAINIPPON PHARMACEUTICAL CO., LTD., code. 02-021) suspended in a DME medium containing 10% fetal bovine serum so as to have a concentration of 1 × 10^5 cells/ml were added into each well of a 48-well cell culture plate. The cells were cultured at 37°C for 24 hours in the presence of 5% CO2, and then the medium was exchanged for a DME medium containing 1% fetal bovine serum. […] The medium was then collected, and by using Quantikine Human Hepatocyte Growth Factor (HGF) ELISA Kit (manufactured by Funakoshi, Code. RS-0641-00), the amount of HGF in the medium was determined.
As a control, distilled water was added in the same volume as that of the sample. The amount of HGF of the control was 7.2 ng/ml. The amount of HGF produced in each sample-added group is shown in Table 1, assuming that the value of the control is 100%. Each experiment was carried out twice, and its average value was taken.

Row | Compound | Amount of HGF Produced (MRC-5 cells [2]; sample 10 µg/ml) [%] | Amount of HGF Produced (MRC-5 cells [2]; sample 100 µg/ml) [%] | Amount of HGF Produced (MRC-5 cells [2]; sample 1000 µg/ml) [%] | Amount of HGF Produced (MRC-5 cells [2]; sample 1 µg/ml) [%] | other results
1 | C[C@@H]1C[C@@H]([C@H](O)CC2CC(=O)NC(=O)C2)C(=O)[C@@H](C)C1 [Cycloheximide, cycloheximide] |  |  |  |  | Amount of HGF Produced (Total in Cells and in Medium) (MRC-5 cells [1]; Cycloheximide 1 µg/ml alone): 31%; Inhibitory Ratio Where Cycloheximide Non-Added Group Was Regarded as 100% (Total in Cells and in Medium) (MRC-5 cells [1]; Cycloheximide 1 µg/ml alone): 69%; Inhibitory Ratio Where Cycloheximide Non-Added Group Was Regarded as 100% (in Medium) (MRC-5 cells [1]; Cycloheximide 1 µg/ml alone): 60%; Amount of HGF Produced (in Medium) (MRC-5 cells [1]; Cycloheximide 1 µg/ml alone): 35% and 40%; Amount of HGF Produced (Total in Cells and in Medium) (MRC-5 cells [1]; Cycloheximide 10 µg/ml alone): 27%; Inhibitory Ratio Where Cycloheximide Non-Added Group Was Regarded as 100% (Total in Cells and in Medium) (MRC-5 cells [1]; Cycloheximide 10 µg/ml alone): 73%; Inhibitory Ratio Where Cycloheximide Non-Added Group Was Regarded as 100% (in Medium) (MRC-5 cells [1]; Cycloheximide 10 µg/ml alone): 60%; Amount of HGF Produced (in Medium) (MRC-5 cells [1]; Cycloheximide 10 µg/ml alone): 27% and 40%
2 | sodium salt of sulfated 2-deoxy-glucose | 127 | 102 | 239 |  | 
3 | sodium salt of sulfated D-(+)- mannose [Sodium Salt of Sulfated Mannose] | 175 | 456 |  | 112 | 
4 | sodium salt of sulfated D-(+)- xylose [Sodium Salt of Sulfated Xylose] | 110 | 112 | 284 |  | 
5 | sodium salt of sulfated D-(+)-galactose [Sodium Salt of Sulfated Galactose] |  | 166 |  |  | 
6 | sodium salt of sulfated D-(+)-glucose [Sodium Salt of Sulfated Glucose] | 377 | 864 |  | 178 | 
7 | sodium salt of sulfated D-glucitol [Sodium Salt of Sulfated Glucitol] | 112 | 203 | 335 |  | 
8 | sodium salt of sulfated D-talose [Sodium Salt of Sulfated Talose] | 112 | 263 | 494 |  | 
9 | sodium salt of sulfated cellobiose | 100 | 143 | 546 |  | 
10 | sodium salt of sulfated dodecyl-maltohexaose | 289 | 371 | 359 |  | 
11 | sodium salt of sulfated isomaltose | 134 | 301 | 477 |  | 
12 | sodium salt of sulfated lactose | 185 | 410 |  | 118 | 
13 | sodium salt of sulfated lactulose | 139 | 376 | 583 |  | 
14 | sodium salt of sulfated maltoheptaose | 341 | 486 | 706 |  | 
15 | sodium salt of sulfated maltohexaose | 407 | 571 | 761 |  | 
16 | sodium salt of sulfated maltose | 273 | 439 |  | 142 | 
17 | sodium salt of sulfated maltotriose | 286 | 387 |  | 151 | 
18 | sodium salt of sulfated melibiose | 240 | 403 | 667 |  | 
19 | sodium salt of sulfated palatinose | 132 | 278 | 519 |  | 
20 | sodium salt of sulfated sucrose | 355 | 501 |  | 173 | 
21 | sodium salt of sulfated trehalose | 447 | 421 |  | 277 | 
22 | sodium salt of sulfated turanose | 127 | 203 | 379 |  | 
